# Read-outs that look alike come from different tables or passages of the source.
# Key:
# [1] = test system: various Pseudomonas species; conditions: cited from earlier work
# S. pneumoniae A-9585 = test: Minimum Inhibitory Concentration, tube dilution; format: cell-based; conditions: Streptococcus pneumoniae, A9585, overnight 37° C.
# S. pyogenes A-9604 = test: Minimum Inhibitory Concentration, tube dilution; format: cell-based; conditions: Streptococcus pyogenes, A9604, overnight 37° C.
# S. aureus A-9537 = test: Minimum Inhibitory Concentration, tube dilution; format: cell-based; conditions: Staphylococcus aureus, read-out: MIC
# [2] = test system: S. aureus A-9606 (Pen-res.); test: Minimum Inhibitory Concentration, tube dilution; format: cell-based; conditions: Staphylococcus aureus
# [3] = test system: S. aureus A15097 (Meth-res.); test: Minimum Inhibitory Concentration, tube dilution; format: cell-based; conditions: Staphylococcus aureus, table 6
# S. faecalis A20688 = test: Minimum Inhibitory Concentration, tube dilution; format: cell-based; conditions: Enterococcus faecalis
# K. pneumoniae A-9664 [4] = test: Minimum Inhibitory Concentration, tube dilution; format: cell-based; conditions: Klebsiella pneumoniae, A9664, overnight 37° C.; table 6
# P. mirabilis A-9900 [5] = test: Minimum Inhibitory Concentration, tube dilution; format: cell-based; conditions: Proteus mirabilis, A9900, overnight 37° C.; table 6
# P. vulgaris A21559 = test: Minimum Inhibitory Concentration, tube dilution; format: cell-based; conditions: Proteus vulgaris, A21559, overnight 37° C.
# S. marcescens A20019 = test: Minimum Inhibitory Concentration, tube dilution; format: cell-based; conditions: Serratia marcescens, A20019, overnight 37° C.; table 6
# P. aeruginosa A-9843A [6] = test: Minimum Inhibitory Concentration, tube dilution; format: cell-based; conditions: Pseudomonas aeruginosa, A9843A
# P. aeruginosa A21213 = test: Minimum Inhibitory Concentration, tube dilution; format: cell-based; conditions: Pseudomonas aeruginosa, A21213, overnight 37° C.; table 6; read-out: MIC
# M. morganii A15153 = test: Minimum Inhibitory Concentration, tube dilution; format: cell-based; conditions: Morganella morganii, A15153, overnight 37° C.; table 6
# P. mirabilis A9900 = test: Protective effect, intramuscular treatment of infected mice (table 8); format: in vivo; conditions: Proteus mirabilis, A9900, im; i.m. 0 and 2 h post-infection; 4×10^7 organisms i.p.; read-out: PD50 /treatment
# Source text: (§1) The PD50 (dose in mg/kg required to give protection to 50% of the infected mice) is indicated.
# P. aeruginosa A9843A = test: animal or person; format: in vivo, mice; conditions: Pseudomonas aeruginosa, in Mus musculus, im, read-out: PD50 /treatment
# Source text: as §1
# [7] = Half-life in phosphate buffer pH 7.4; format: physicochemical; conditions: phosphate buffer
# Outline: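 Compound at 10^-4 M in phosphate buffer pH 7.4 at 36.8° C; τ1/2 reported from this incubation.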
# E. coli A15119 = test: Minimum Inhibitory Concentration, tube dilution; format: cell-based; conditions: Escherichia coli, A15119, 10^-4 dil.
# E. coli A20341-1 = test: Minimum Inhibitory Concentration, tube dilution; format: cell-based; conditions: Escherichia coli, A203411, 10^-4
# P. rettgeri A22424 = test: Minimum Inhibitory Concentration, tube dilution; format: cell-based; conditions: Providencia rettgeri, overnight 37° C., read-out: MIC
# H. influenzae A-9833 = test: Minimum Inhibitory Concentration, tube dilution; format: cell-based; conditions: Haemophilus influenzae, A9833
# H. influenzae A20178 = test: Minimum Inhibitory Concentration, tube dilution; format: cell-based; conditions: Haemophilus influenzae, overnight 37° C.
# H. influenzae A21518 = test: Minimum Inhibitory Concentration, tube dilution; format: cell-based; conditions: Haemophilus influenzae, overnight 37° C.
# H. influenzae A21522 = test: Minimum Inhibitory Concentration, tube dilution; format: cell-based; conditions: Haemophilus influenzae, overnight 37° C.
# B. fragilis A22696 = test: Minimum Inhibitory Concentration, tube dilution; format: cell-based; conditions: Bacteroides fragilis, overnight 37° C., read-out: MIC
# S. aureus A-9606 = test: Protective effect, intramuscular treatment of infected mice; format: in vivo; conditions: Staphylococcus aureus, A9606, im; i.m.; challenge 1 × 10^9; read-out: PD50 /Treatment
# Procedure: as §1
# (§2) Treatment Schedule: Mice were treated i.m. with drugs 0 and 2 hours
# (§3) 3.5 hours (all others); 5 mice were used for each test.
# K. pneumoniae A-9664 [8] = test: as above; format: in vivo; conditions: Klebsiella pneumoniae, A9664, im; i.m.; challenge 7 × 10^6; read-out: PD50 /Treatment
# Procedure: as §1, §2, §3
# P. rettgeri A15167-2 = test: as above; format: in vivo; conditions: Providencia rettgeri, A151672, im; i.m.; challenge 3 × 10^7; read-out: PD50 /Treatment
# Procedure: as §1, §2, §3
# M. morganii A15149 = test: as above; format: in vivo; conditions: Morganella morganii, A15149, im; i.m.; challenge 7 × 10^5; read-out: PD50 /Treatment
# Procedure: as §1, §2, §3
# S. marcescens A20335 = test: as above; format: in vivo; conditions: Serratia marcescens, A20335, im; i.m.; challenge 9 × 10^6; read-out: PD50 /Treatment
# Procedure: as §1, §2, §3
# P. aeruginosa A-9843a [9] = test: as above; format: in vivo; conditions: Pseudomonas aeruginosa, A9843A, im; challenge 3 × 10^4; Historical data; read-out: PD50 /Treatment
# Procedure: as §1, §2, §3
# P. aeruginosa A20481 = test: as above; format: in vivo; conditions: Pseudomonas aeruginosa, A20481, im; i.m.; challenge 3 × 10^4; read-out: PD50 /Treatment
# Procedure: as §1, §2, §3
# P. aeruginosa A20599 = test: as above; format: in vivo; conditions: Pseudomonas aeruginosa, A20599, im; i.m.; challenge 9 × 10^4; read-out: PD50 /Treatment
# Procedure: as §1, §2, §3
# [10] = Blood levels in mice after intramuscular administration; format: in vivo; conditions: mouse, im, 20 mg/kg i.m.
# Source text: a single test; 4 mice used per compound.
# [11] = Urinary recovery in mice after intramuscular administration; format: in vivo; conditions: mouse, urine, im, 20 mg/kg, 20 mg/kg i.m., read-out: Percentage of Dose Recovered (urine)
# Source text: | a single test; 4 mice per compound.
# in vivo = conditions: mouse
# E. cloacae A-9569 = test: animal or person; conditions: Enterobacter cloacae, A9569, in Mus musculus, im, read-out: PD50 /Treatment
# Procedure: as §1, §2, §3
# P. mirabilis A-9900 [12] = test: animal or person; conditions: Proteus mirabilis, A9900, in Mus musculus, im, read-out: PD50 /Treatment, i.m.; challenge 4 × 10^6
# Procedure: as §1, §2, §3
# [13] = Toxicity after intracranial administration to mice; conditions: mouse, in vivo
compound,measurement,setting,value
"C[C@@H](O)[C@H]1C(=O)N2C(C(=O)O)=C(SCCN)C[C@H]12 [Thienamycin, thienamycin]",activity against various Pseudomonas species,[1],notable activity
"C[C@@H](O)[C@H]1C(=O)N2C(C(=O)[O-])=C(SCC[n+]3cccc(N)c3)C[C@H]12 [Example 14, (5R, 6S)-3-[2-(3-aminopyridinio)ethylthio]-6-[1-(R)-hydroxyethyl]-7-oxo-1-azabicyclo[3.2.0]-hept-2-ene-2-carboxylate]",MIC,S. pneumoniae A-9585; table 6,0.002 µg/mL
same,MIC,S. pyogenes A-9604; table 6,0.004 µg/mL
same,MIC,"S. aureus A-9537; A9537, 50% serum, table 6",0.016 µg/mL
same,MIC,"S. aureus A-9537; A9537, overnight 37° C., table 6",0.008 µg/mL
same,MIC,"[2]; Pen-res, table 6",0.008 µg/mL
same,MIC,[3],0.008 µg/mL
same,MIC,"S. faecalis A20688; A20688, overnight 37° C., table 6, read-out: MIC",0.5 µg/mL
same,MIC,K. pneumoniae A-9664 [4],0.06 µg/mL
same,MIC,P. mirabilis A-9900 [5],0.03 µg/mL
same,MIC,P. vulgaris A21559; table 6,0.016 µg/mL
same,MIC,S. marcescens A20019,0.06 µg/mL
same,MIC,"P. aeruginosa A-9843A [6]; overnight 37° C., table 6, read-out: MIC",2 µg/mL
same,MIC,P. aeruginosa A21213,1 µg/mL
same,MIC,M. morganii A15153,0.03 µg/mL
same,ED50,P. mirabilis A9900,5.4 mg/kg
same,ED50,P. aeruginosa A9843A,0.78 mg/kg
same,half-life,"[7]; pH 7.4, t1/2 (half-life)",18.5 h
"C[C@@H](O)[C@H]1C(=O)N2C(C(=O)[O-])=C(SCC[n+]3ccccc3)C[C@H]12 [Example 1, 3-[2-(1-Pyridinium)ethylthio]-6α-[1-(R)-hydroxyethyl]-7-oxo-1-azabicyclo (3.2.0)-hept-2-ene-2-carboxylate]",MIC,S. pneumoniae A-9585,0.002 µg/mL
same,MIC,S. pyogenes A-9604,0.008 µg/mL
same,MIC,"S. aureus A-9537; A9537, + 50% serum",0.03 µg/mL
same,MIC,"S. aureus A-9537; A9537, overnight 37° C.",0.008 µg/mL
same,MIC,[2]; Pen-res.,0.016 µg/mL
same,MIC,S. faecalis A20688; A20688,0.5 µg/mL
same,MIC,E. coli A15119,0.03 µg/mL
same,MIC,E. coli A20341-1,0.03 µg/mL
same,MIC,P. vulgaris A21559,0.03 µg/mL
same,MIC,P. rettgeri A22424,0.5 µg/mL
same,MIC,P. aeruginosa A-9843A [6],2 µg/mL
same,MIC,H. influenzae A-9833,8 µg/mL
same,MIC,H. influenzae A20178,8 µg/mL
same,MIC,H. influenzae A21518,8 µg/mL
same,MIC,H. influenzae A21522,8 µg/mL
same,MIC,B. fragilis A22696,0.5 µg/mL
same,ED50,S. aureus A-9606,0.11 mg/kg
same,ED50,K. pneumoniae A-9664 [8],7.7 mg/kg
same,ED50,P. rettgeri A15167-2,5.7 mg/kg
same,ED50,M. morganii A15149,4.4 mg/kg
same,ED50,S. marcescens A20335,3.3 mg/kg
same,ED50,P. aeruginosa A-9843a [9],0.8 mg/kg
same,ED50,P. aeruginosa A20481,0.8 mg/kg
same,ED50,P. aeruginosa A20599,3 mg/kg
same,AUC,[10],6400 ng·h/mL
same,half-life,[10],9 min
same,dose excreted at 3 h,[11]; 0-3 hours,23.3%
same,dose excreted at 24 h,[11]; 0-24 hours,24.2 ± 5.3%
same,dose excreted at 6 h,[11]; 3-6 hours,0.5%
same,dose excreted at 24 h,[11]; 6-24 hours,0.4%
same,half-life at 100 µM,"[7]; pH 7.4, τ1/2 (half-life)",13.5 h
same,NOAEL,in vivo,> 40 mg/kg
same,ED50,E. cloacae A-9569,0.4 mg/kg
same,ED50,P. mirabilis A-9900 [12],19 mg/kg
same,LD50,[13],> 40 mg/kg

# Reference: patent US4642341A, “Carbapenem antibiotics” (priority 1985, dated 1987)
